Entries after “also recorded” stand apart in the source; their conditions may differ. Ends that are not written are not given here.
How the values were obtained:
KDR [1] = test: Displacement of 125I-VEGF165 binding to CHO-KDR transfected cells by V1 derivatives; conditions: for Efficiency (% Emax): relative to V1 = 100; for peptide efficiency after change of C-terminal arginine: compared with V1
Description: FIG. 11. […] Experimental conditions are indicated in the legend of FIG. 10.
FIG. 12. […] Experimental conditions are indicated in the legend of FIG. 10.
(§1) Experimental conditions are indicated in the legend of FIG. 10.
FIG. 17. […] Experimental conditions are indicated in the legend of FIG. 10.

KDR [2] = test: ELISA of the phage-displayed peptide binding to CHO-KDR cells; conditions: clones selected by anti-VEGF antibody binding, 10^12 pfu/ml
Description: FIG. 2. […] Clones selected by KDR binding (10^13 pfu/ml) (A) or by anti-VEGF antibody binding (10^12 pfu/ml) (B) were compared with M13 phage particles (control). Results are representative of three independent assays.
Exponentially growing CHO-KDR cells were seeded in 96-well microtiter plates at 7×10^4 cells/well and left overnight at 37° C. Cells were fixed with paraformaldehyde (4% in PBS) for 15 min at room temperature and washed with PBS. Wells were then filled with PBS-Glycine 0.2%, kept for 15 min at room temperature and then washed with PBS. Phage particles (10^12 or 10^13/ml) were added to each well and incubated 2 h at room temperature. Wells were washed with PBS and the amount of bound phage was detected with peroxidase-conjugated anti-M13 phage serum (Pharmacia Biotech, Uppsala, Sweden).

[3] = tested on: Calf pulmonary artery endothelial cells (CPAE); test: CPAE cell proliferation assay (BrdU incorporation); type: cell-based; conditions: 2.1×10^−4M synthetic peptide, 24 h
Description: FIG. 3. The anti-VEGF antibody blocks CPAE cell growth. CPAE cell growth was measured in cultures supplemented with various concentrations of anti-VEGF antibody and compared with untreated cultures. Data represent means and standard deviations of proliferation inhibition for triplicate samples and are representative of two independent experiments.
FIG. 6. V1 inhibits CPAE cell proliferation. CPAE cell growth was measured after 24h of incubation in presence of synthetic peptides selected by antibody binding (A) or by KDR binding (B) and compared with untreated cultures. Data represent means and standard deviations of proliferation inhibition for triplicates and are representative of three independent experiments.
(§2) Cell proliferation assay. To test the anti-VEGF antibody neutralizing effect, CPAE cells were plated into 96-well tissue culture plates at a density of 500 cells/well. After 24 h, various concentrations of anti-VEGF antibody were added. The cells were cultured for an additional day and cell proliferation was measured using the Cell proliferation ELISA kit from Boerhinger (Indianapolis, Ind.). Cells were incubated with BrdU for 4 h at 37° C., and the incorporation of BrdU in newly synthetized DNA was quantified by immunoassay as described by the manufacturer. To investigate the peptide effect, after 24 h of CPAE cell growth, 2.1×10^−4M synthetic peptides were added daily to the culture medium. Cell proliferation was assessed after 24 h, 48 h or 72 h as described above. […] Cells were trypsinized and counted after 5 days using a Coulter counter.

KDR [4] = test: Competition assay of 125I-VEGF binding to CHO-KDR cells; parameters: block of VEGF binding to CHO-KDR cells: dose or concentration left out as unconfirmed; conditions: for inhibitory effect on VEGF binding to KDR: fixed peptide concentration 2.1×10^−4M, heparin 1.8 μg/ml
Description: FIG. 1. […] (B) Effect of heparin. […] Data correspond to the mean and standard deviations of triplicate samples.
FIG. 4. […] Data represent the means and standard deviations of triplicate samples.
FIG. 5. […] Data represent the mean and standard deviations of triplicate samples.
(§3) Competition assay of binding to CHO-KDR cells. CHO-KDR cells were seeded in 24-well plates at a density of 5×10^5 cells/well. After 24 h, subconfluent plates were transferred at 4° C., and all subsequent operations were done at 4° C. […] After 3 h, cells were washed five times with binding buffer and solubilized by the addition of 0.5 M NaOH. The amount of radioactivity bound to the cells was counted in a gamma counter (LKB 1261 Multigamma). The receptor affinity and the number of binding sites per cell were determined by Scatchard's analysis (Scatchard, 1986).

[5] = tested on: Human Umbilical Artery Endothelial Cells (HUAE); test: HUAE cell proliferation induced by VEGF; type: cell-based; conditions: 2 ng/ml VEGF, peptide daily, 5 days
Description: (§4) FIG. 7. […] Cells were counted after 5 days. Data are means of proliferation inhibition percentages for triplicate samples.
as §2

[6] = tested on: VEGF-induced corneal angiogenesis; test: Rabbit corneal pocket assay; type: in vivo, New Zealand rabbit; conditions: day 12; for effect on VEGF-induced corneal angiogenic response: implant 2 pmol VEGF + 30 nmol peptide; for neovascularization by peptide compared with vehicle alone: implant 30 nmol peptide, absence of VEGF
Description: FIG. 9. V1 inhibits corneal angiogenesis in vivo.
Rabbit corneal pocket assay. […] These implants were inserted in New Zealand rabbit (Elevage du Trottis, Esperce, France) corneal stroma 2 mm away from the limbus (Favard et al, 1991). Neovascularization was assessed on day 12 by direct examination with a slit lamp and scored according to a 4 grade scale (grade 1: less than 1 mm long neovessels, grade 2: 1 mm long neovessels, grade 3: 1 to 2 mm long neovessels, grade 4: neovessels extending to the implant). Means and standard deviations were determined on 8 implant groups for each condition.

KDR [7] = target: T1, KDR (Homo sapiens, UniProt P35968); test: HUAE cell proliferation induced by KDR anti-idiotypic antibodies (AIA); type: cell-based; conditions: 100 ng/ml KDR anti-idiotypic antibodies, peptide daily, 5 days
T1 construct: endogenous in cells; host or cells: HUAE cells
T1 sequence (P35968 20-1356): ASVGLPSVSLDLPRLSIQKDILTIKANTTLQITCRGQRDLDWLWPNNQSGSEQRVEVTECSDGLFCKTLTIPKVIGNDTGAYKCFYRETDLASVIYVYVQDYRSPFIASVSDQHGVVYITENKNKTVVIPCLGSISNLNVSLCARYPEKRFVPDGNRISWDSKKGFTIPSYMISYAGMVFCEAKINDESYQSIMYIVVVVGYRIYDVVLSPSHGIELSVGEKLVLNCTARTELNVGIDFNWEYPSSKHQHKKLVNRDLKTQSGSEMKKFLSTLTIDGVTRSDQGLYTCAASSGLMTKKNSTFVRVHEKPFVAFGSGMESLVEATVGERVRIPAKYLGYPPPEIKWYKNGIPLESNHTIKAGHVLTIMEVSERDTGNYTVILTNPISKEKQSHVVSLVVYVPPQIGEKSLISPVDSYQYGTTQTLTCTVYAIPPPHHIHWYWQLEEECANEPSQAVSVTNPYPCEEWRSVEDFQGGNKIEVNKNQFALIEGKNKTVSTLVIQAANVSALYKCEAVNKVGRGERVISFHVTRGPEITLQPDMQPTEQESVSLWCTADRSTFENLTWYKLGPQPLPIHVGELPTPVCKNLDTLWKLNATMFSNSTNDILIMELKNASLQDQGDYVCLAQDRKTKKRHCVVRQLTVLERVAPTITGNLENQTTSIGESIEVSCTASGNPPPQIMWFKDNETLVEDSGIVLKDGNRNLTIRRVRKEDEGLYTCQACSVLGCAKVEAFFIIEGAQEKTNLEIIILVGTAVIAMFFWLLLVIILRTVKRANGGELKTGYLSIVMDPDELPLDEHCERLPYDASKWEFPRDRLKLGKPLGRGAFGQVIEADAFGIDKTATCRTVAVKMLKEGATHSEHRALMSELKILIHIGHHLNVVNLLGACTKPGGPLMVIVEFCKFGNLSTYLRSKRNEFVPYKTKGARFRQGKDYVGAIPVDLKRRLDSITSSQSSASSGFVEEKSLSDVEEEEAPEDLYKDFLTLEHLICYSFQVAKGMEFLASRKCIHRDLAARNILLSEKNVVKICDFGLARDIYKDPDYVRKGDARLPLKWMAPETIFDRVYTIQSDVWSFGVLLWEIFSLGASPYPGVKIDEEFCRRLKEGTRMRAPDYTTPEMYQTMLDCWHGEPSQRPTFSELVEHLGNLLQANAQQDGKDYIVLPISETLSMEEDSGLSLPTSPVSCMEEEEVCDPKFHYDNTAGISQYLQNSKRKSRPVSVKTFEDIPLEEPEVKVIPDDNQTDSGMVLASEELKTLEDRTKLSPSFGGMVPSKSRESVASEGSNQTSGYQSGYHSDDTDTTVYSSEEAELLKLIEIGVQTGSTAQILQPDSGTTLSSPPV
Description: as §4, §2

[8] = tested on: 125I-VEGF-receptor complexes (VEGF-R2, NP1) on HUV-EC cells; test: Cross linking of 125I VEGF165 to HUV-EC cells; type: binding, human; conditions: V1 2.4×10^−4M and 4.8×10^−4M, 125I VEGF165 160 pM
Description: FIG. 19. […] 1: Total binding. […] 3: V1, (2.4×10^−4M). 4: V1, (4.8×10^−4M).

NIH 3T3 fibroblasts = test: NIH3T3 fibroblast proliferation; type: cell-based; conditions: 24 h
Description: FIG. 8. V1 acts specifically on endothelial cells. CPAE and NIH 3T3 fibroblasts were cultured with or without V1 peptide, and the changes in cell proliferation were measured after 24 h. Data represent the means and standard deviations of proliferation inhibition percentages for triplicate samples, and similar results were obtained in two independent experiments.
as §2

[9] = tested on: Human umbilical vein endothelial cell (HUVEC); test: VEGF165 induced HUVEC proliferation; type: cell-based; conditions: V1 400 μg/ml, various VEGF165 concentrations, 96 hours
Description: FIG. 13. Effect of V1 (400 μg/ml) VEGF165 induced HUVEC proliferation. Various concentrations of VEGF165 were added during 96 hours.
The inhibitory effect of V1 on Human umbilical vein endothelial cell (HUVEC) in primary culture.

VEGF-R2 on HUV-EC Cells = test: 125I-VEGF165 binding to HUV-EC cells (Scatchard); parameters: species or system human; conditions: V1 40 μg/ml
Description: as §1
(see FIGS. 16A, B and C).

[10] = target: T2, recombinant KDR expressed at the membrane surface of CHO-KDR cells (UniProt P35968 20-1356, limits assumed); test: displacement of 125I-VEGF165 from CHO-KDR transfected cells
T2 construct: whole, on cells; also called VEGFR-2; VEGF-R2
T2 sequence (P35968 20-1356 limits assumed): as the sequence (P35968 20-1356) above
Description: as §3, with “5×10⁵” for “5×10^5”

[11] = heparin various amounts, PlGF 50 ng/ml

With ATWLAPR [A5] the “Efficiency (% Emax)” value (KDR [1]) was 65 % Emax.

ATWLPAR [A6] was tested, and the “Efficiency (% Emax)” value (KDR [1]) was 84 % Emax.

With LPPNPTK [V6] the “ELISA signal of phage clone binding to CHO-KDR cells” value (KDR [2]) was “best reactivities”, the “reduction of CPAE cell proliferation” value [3] was “significantly inhibited the proliferation of endothelial cells” and the “inhibitory effect on VEGF binding to KDR” value (KDR [4]) was “did not affect the binding of VEGF to KDR; also recorded: no effect on VEGF binding to KDR”.

ATALPPR [A3] was tested, and the “Efficiency (% Emax)” value (KDR [1]) was 70 % Emax.

ILDNYKL [V5] was tested, and the “effect on VEGF-induced proliferation of human endothelial cells” value [5] was “no inhibitory effect”, the “effect on VEGF-induced corneal angiogenic response” value [6] was “not modified” and the “neovascularization by peptide compared with vehicle alone” value [6] was “did not improve the generation of new blood vessels”. For the same molecule, the “effect on VEGF binding to CHO-KDR cells” value (KDR [4]; various concentrations, same conditions as V1) was “did not modify VEGF binding”.

With ATWAPPR [A4] the “Efficiency (% Emax)” value (KDR [1]) was 31 % Emax.

In the case of ATALPP [A10], the “peptide efficiency after change of C-terminal arginine” value (KDR [1]) is reported as “significantly reduced the peptide efficiency”.

In the case of SLPAHAR [K4], the “reduction of CPAE cell proliferation” value [3] is reported as “minor effect on endothelial growth” and the “inhibitory effect on VEGF binding to KDR” value (KDR [4]) is reported as “could partially inhibit VEGF binding to KDR”.

ATWLPPA [A7] was tested, and the “activity of alanine-substituted analogues in displacement of 125I-VEGF165” value (KDR [1]; AlaScan) was “totally devoid of activity” and the “Efficiency (% Emax)” value (KDR [1]) was 0 % Emax.

For ATWLPPR [V1, ATWLPPR], the “effect on AIA-dependent cell proliferation” value (KDR [7]) was “could suppress the AIA-dependent cell proliferation”, the “ELISA signal of phage clone binding to CHO-KDR cells” value (KDR [2]) was “best reactivities” and the “reduction of CPAE cell proliferation” value [3] was 60%. For the same molecule, the “effect on binding and affinity of 125I VEGF165 to VR2 on transfected CHO cells” value (KDR [1]; 50 μg/ml V1, Scatchard) was “inhibited the binding; also recorded: affinity is lowered”, the IC50 (KDR [1]; 125I-VEGF 7 pM, heparin 1 μg/ml, 3 hours +4° C., read-out: CI50 (the source's name)) was 18.8 µM and the “effect on heparin agonistic effect on VEGF165 binding” value (KDR [1]; V1 50 μg/ml) was “inhibited this heparin agonistic effect”. For the same molecule, the “Efficiency (% Emax)” value (KDR [1]) was 100 % Emax, the “effect on VEGF-induced proliferation of human endothelial cells” value [5] was “suppressed the mitogenic activity of VEGF in a dose dependent manner” and the “labeling of 125I-VEGF-receptor complexes (240-260 kDa and 160-170 kDa)” value [8] was “decreased”. For the same molecule, the “effect on VEGF-induced corneal angiogenic response” value [6] was “totally abolished”, the “neovascularization by peptide compared with vehicle alone” value [6] was “did not improve the generation of new blood vessels” and the “effect on NIH 3T3 fibroblast proliferation” value (NIH 3T3 fibroblasts) was “did not modify the proliferation”. For the same molecule, the “effect on VEGF-induced HUVEC proliferation” value [9] was “inhibited by V1 in a non competitive manner”, the “block of VEGF binding to CHO-KDR cells” value (KDR [4]) was “nearly block VEGF binding” and the “inhibitory effect on VEGF binding to KDR” value (KDR [4]) was “showed an inhibitory effect”. The IC50 (KDR [4]; read-out: IC50 for inhibition of VEGF binding to CHO-KDR cells, estimated) was 80 µM and the “effect on VEGF binding to HUV-EC receptors” value (VEGF-R2 on HUV-EC Cells) was “inhibited only the VEGF binding to high affinity receptors”.

heparin [reference compound] was tested, and the “optimal heparin concentration for increasing VEGF binding” value (KDR [4]) was 1.8 µg/mL and the “effect on VEGF binding to CHO-KDR cells” value (KDR [4]; [11]) was “increase the binding of VEGF”.

In the case of AAWLPPR [A2], the “Efficiency (% Emax)” value (KDR [1]) is reported as 61 % Emax.

For “AAWLPPK [A9, V1 analogue, C-terminal arginine substituted by lysine]”, the “peptide efficiency after change of C-terminal arginine” value (KDR [1]) was “also reduced the peptide efficiency”.

With ATWLPPA (AlaScan analogue of ATWLPPR) [V1 analogue A7 (Ala7-substituted analogue)] the “Efficiency (% Emax)” value [10] was 0 % Emax.

B1: PlGF: placenta growth factor (R & D Systems) (protein)
chain: AVPPQQWALSAGNGSSEVEVVPFQEVWGRSYCRALERLVDVVSEYPSEVEHMFSPSCVSLLRCTGCCGDENLHCVPVETANVTMQLLKIRSGDRPSYVELTFSQHVRCECRPLREKMKPERCGDAVPRR
In the case of B1, the “effect on VEGF binding to CHO-KDR cells” value (KDR [4]; [11]) is reported as “not modifying VEGF binding”.
